Experimental data: patent US20030073721A1, “Peptide beta-strand mimics based on 1,2-dihydro-3(6H)-pyridinone” (THE REGENTS OF THE UNIVERSITY OF CALIFORNIA, a California …, priority 2001, published 2003)
Read-outs that look alike come from different tables or passages of the source.

Target: homodimer
Assay: Dimer dissociation constant from concentration dependence of NH chemical shifts (NMR)
Format: binding
Source text: Dimerization of the Ach-containing peptide analogs of this invention can be detected by observing changes in NH chemical shifts as a function of concentration. For a dimerization process with dissociation constant Kd and NMR chemical shifts δmono and δdi, respectively, the observed chemical shift, δobs, as a function of concentration c is expressed by the following equation: [formula]
Experimental data were obtained for Ac-Phe-Ach-Leu-Ach-Ile, N-methyl amide and for its corresponding sarcosine-containing peptide corresponding to Ac-Phe-Sar-Leu-Sar-Ile, N-methyl amide, as well as for various other Ach-containing peptide analogs of this invention terminating in carboxylic acid groups rather than N-methyl amide groups, all in CDCl3 or CD3OH/CDCl3 at 25° C.
To distinguish between the two species, the dissociation constants of dimers of each species were determined.

CCC(C)C(NC1=CC(=O)CN(C(=O)C(CC(C)C)NC2=CC(=O)CN(C(=O)C(Cc3ccccc3)NC(C)=O)C2)C1)C(=O)NC (stereo not drawn) [Ac-Phe-Ach-Leu-Ach-Ile-NHMe, Ac-Phe-Ach-Leu-Ach-Ile, N-Methyl Amide]
Kd (0% CD3OH/CDCl3 (pure CDCl3), 25° C., read-out: Dissociation constant Kd (dimer)): 400 µM

Ac-Leu-Ach-Val-Ach-Leu-Ach-Phe-OH [Ach-containing peptide analog (heptamer) terminating in carboxylic acid group]
Kd (15% CD3OH/CDCl3, 25° C., read-out: Dissociation constant Kd (dimer)): 1500 µM

Ac-Phe-Ach-Leu-Ach-Val-OH [Ach-containing peptide analog terminating in carboxylic acid group]
Kd (2.5% CD3OH/CDCl3, 25° C., read-out: Dissociation constant Kd (dimer)): 90 µM | Kd (5% CD3OH/CDCl3, 25° C., read-out: Dissociation constant Kd (dimer)): 8000 µM | Kd (pure chloroform, extrapolated from Kd vs CD3OH concentration, read-out: Dissociation constant in pure chloroform, extrapolation of the line in FIG. 1): ~0.13 µM

Phe-Gly-Ser-D-Pro-Ala-Leu-Ach-Ile [hybrid 1]
Kd (5% CD3OH/CDCl3, concentration range 0.6-42 mM, read-out: Dimer dissociation constant): 25000 µM
